# Target: T1, Muscarinic acetylcholine receptor M1 (Rattus norvegicus, UniProt P08482)
# T1 sequence (P08482 whole entry): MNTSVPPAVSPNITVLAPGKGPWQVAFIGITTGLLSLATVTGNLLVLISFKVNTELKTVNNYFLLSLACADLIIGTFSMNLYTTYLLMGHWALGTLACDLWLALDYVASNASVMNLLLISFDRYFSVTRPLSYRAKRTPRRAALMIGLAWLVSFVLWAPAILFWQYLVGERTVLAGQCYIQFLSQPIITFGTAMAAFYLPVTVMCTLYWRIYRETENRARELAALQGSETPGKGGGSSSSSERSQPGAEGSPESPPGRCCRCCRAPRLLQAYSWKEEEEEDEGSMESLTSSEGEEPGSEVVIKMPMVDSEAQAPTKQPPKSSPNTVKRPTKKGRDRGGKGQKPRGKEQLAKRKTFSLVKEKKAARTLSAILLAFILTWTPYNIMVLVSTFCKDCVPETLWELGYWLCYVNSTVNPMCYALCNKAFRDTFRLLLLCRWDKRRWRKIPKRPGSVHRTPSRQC
# Assay: Inhibition of binding of [3H]quinuclidinyl benzilate to Muscarinic acetylcholine receptor M1 in rat brain cortex at 10e-5 M of compound concentration; call rule not given here
# Assay type: tissue-based
row,SMILES,IC50 [nM]
1,CN1C2C=C(c3cccc(Cl)n3)CC1CC2.O=C(O)/C=C\C(=O)O (stereo unspecified),1850
2,CN1C2C=C(c3ccc(Cl)nc3)CC1CC2 (stereo unspecified),2140

# Target: 5-hydroxytryptamine receptor 1B (Rattus norvegicus) (UniProt P28564)
# Sequence (P28564 whole entry): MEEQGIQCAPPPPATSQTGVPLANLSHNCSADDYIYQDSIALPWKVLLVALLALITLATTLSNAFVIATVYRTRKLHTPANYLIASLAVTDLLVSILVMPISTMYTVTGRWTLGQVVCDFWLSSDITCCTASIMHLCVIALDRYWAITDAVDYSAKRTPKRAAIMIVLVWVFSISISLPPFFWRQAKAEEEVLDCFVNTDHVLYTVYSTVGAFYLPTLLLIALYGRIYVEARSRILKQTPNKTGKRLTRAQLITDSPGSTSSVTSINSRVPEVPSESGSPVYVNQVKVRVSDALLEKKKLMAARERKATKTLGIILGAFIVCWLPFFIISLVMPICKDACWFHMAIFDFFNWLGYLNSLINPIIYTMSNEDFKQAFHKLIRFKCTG
# Assay: Inhibition of [3H]5-HT binding to 5-hydroxytryptamine 1B receptor in rat striatum; Less active
# Assay type: tissue-based
row,SMILES,Activity
1,CN1C2CCC1CC(O)(c1cccc(Cl)n1)C2 (stereo unspecified),Weak activity
2,CCOC(=O)N1C2CCC1CC(O)(c1ccc(Cl)nc1)C2 (stereo unspecified),Weak activity
3,CN1CCC(O)(c2ccc(Cl)nc2)CC1,Weak activity
4,CN1C2C=C(c3ccc(Cl)cn3)CC1CC2 (stereo unspecified),Weak activity
5,CN1C2CCC1CC(O)(c1ccc(Cl)cn1)C2 (stereo unspecified),Weak activity
6,CCOC(=O)N1C2CCC1CC(O)(c1cccc(Cl)n1)C2 (stereo unspecified),Weak activity
7,Clc1ccc(-c2cccnc2)cn1,Weak activity
8,CCOC(=O)N1C2CCC1CC(O)(c1ccc(Cl)cn1)C2 (stereo unspecified),Weak activity
9,CCOC(=O)OC1(c2ccc(Cl)nc2)CCN(C)CC1,Weak activity
10,CN1C2CCC1CC(O)(c1ccc(Cl)nc1)C2 (stereo unspecified),Weak activity

# Organism: Rattus norvegicus
# Assay: Inhibition of binding of [3H]-nicotine to neural nicotinic cholinergic receptor in rat brain membranes at 10e-5 M of compound concentration; Less active
# Assay type: cell membranes
row,SMILES,Activity
1,CN1C2CCC1CC(O)(c1cccc(Cl)n1)C2 (stereo unspecified),Weak activity
2,CCOC(=O)N1C2CCC1CC(O)(c1ccc(Cl)nc1)C2 (stereo unspecified),Weak activity
3,CN1CCC(O)(c2ccc(Cl)nc2)CC1,Weak activity
4,CN1C2C=C(c3ccc(Cl)cn3)CC1CC2 (stereo unspecified),Weak activity
5,CCOC(=O)OC1(c2ccc(Cl)nc2)CCN(C)CC1,Weak activity
6,CN1C2CCC1CC(O)(c1ccc(Cl)nc1)C2 (stereo unspecified),Weak activity

# Target: T2, Muscarinic acetylcholine receptor M1 (Rattus norvegicus) (UniProt P08482)
# T2 sequence (whole entry): T1 sequence (P08482 whole entry)
# Assay: Inhibition of binding of [3H]quinuclidinyl benzilate to Muscarinic acetylcholine receptor M1 in rat brain cortex at 10e-5 M of compound concentration; Less active
# Assay type: tissue-based
row,SMILES,Activity
1,CN1C2CCC1CC(O)(c1cccc(Cl)n1)C2 (stereo unspecified),Weak activity
2,CCOC(=O)N1C2CCC1CC(O)(c1ccc(Cl)nc1)C2 (stereo unspecified),Weak activity
3,CN1CCC(O)(c2ccc(Cl)nc2)CC1,Weak activity
4,CN1C2C=C(c3ccc(Cl)cn3)CC1CC2 (stereo unspecified),Weak activity
5,CN1C2CCC1CC(O)(c1ccc(Cl)cn1)C2 (stereo unspecified),Weak activity
6,CCOC(=O)N1C2CCC1CC(O)(c1cccc(Cl)n1)C2 (stereo unspecified),Weak activity
7,Clc1ccc(-c2cccnc2)cn1,Weak activity
8,CCOC(=O)N1C2CCC1CC(O)(c1ccc(Cl)cn1)C2 (stereo unspecified),Weak activity
9,CCOC(=O)OC1(c2ccc(Cl)nc2)CCN(C)CC1,Weak activity
10,CN1C2CCC1CC(O)(c1ccc(Cl)nc1)C2 (stereo unspecified),Weak activity

# Target: T3, 5-hydroxytryptamine receptor 1A (Rattus norvegicus) (UniProt P19327)
# T3 sequence (whole entry): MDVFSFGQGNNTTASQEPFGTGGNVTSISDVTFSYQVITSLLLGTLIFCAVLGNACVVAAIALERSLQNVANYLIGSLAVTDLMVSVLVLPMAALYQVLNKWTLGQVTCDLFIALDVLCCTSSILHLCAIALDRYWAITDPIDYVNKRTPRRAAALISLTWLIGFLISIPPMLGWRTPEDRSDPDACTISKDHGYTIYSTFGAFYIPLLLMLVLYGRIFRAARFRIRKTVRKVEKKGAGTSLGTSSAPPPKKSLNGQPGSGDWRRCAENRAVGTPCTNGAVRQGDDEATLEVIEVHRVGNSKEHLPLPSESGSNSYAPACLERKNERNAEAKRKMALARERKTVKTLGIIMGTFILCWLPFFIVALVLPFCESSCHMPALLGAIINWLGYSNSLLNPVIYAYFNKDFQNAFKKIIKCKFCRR
# Assay: Inhibition of [3H]8-hydroxy-2-dipropylamino-1,2,3,4-tetrahydronaphthalene binding to 5-hydroxytryptamine 1A receptor in hippocampus region of rat brain; Less active
# Assay type: tissue-based
row,SMILES,Activity
1,CN1C2CCC1CC(O)(c1cccc(Cl)n1)C2 (stereo unspecified),Weak activity
2,CCOC(=O)N1C2CCC1CC(O)(c1ccc(Cl)nc1)C2 (stereo unspecified),Weak activity
3,CN1CCC(O)(c2ccc(Cl)nc2)CC1,Weak activity
4,CN1C2C=C(c3ccc(Cl)cn3)CC1CC2 (stereo unspecified),Weak activity
5,CN1C2CCC1CC(O)(c1ccc(Cl)cn1)C2 (stereo unspecified),Weak activity
6,CCOC(=O)N1C2CCC1CC(O)(c1cccc(Cl)n1)C2 (stereo unspecified),Weak activity
7,Clc1ccc(-c2cccnc2)cn1,Weak activity
8,CCOC(=O)N1C2CCC1CC(O)(c1ccc(Cl)cn1)C2 (stereo unspecified),Weak activity
9,CCOC(=O)OC1(c2ccc(Cl)nc2)CCN(C)CC1,Weak activity
10,CN1C2CCC1CC(O)(c1ccc(Cl)nc1)C2 (stereo unspecified),Weak activity

# Target: T1, Muscarinic acetylcholine receptor M1
# Assay type: tissue-based, Brain
row,SMILES,IC50
1,CN1CC=C(c2ccc(Cl)nc2)CC1.Cl,Not Active
2,C[n+]1cccc(-c2ccc(Cl)nc2)c1.[I-],Not Active
3,CN1CCC=C(c2ccc(Cl)nc2)C1.O=C(O)/C=C\C(=O)O,Not Active

# Organism: Rattus norvegicus
# Assay: Inhibition of binding of [3H]nicotine to neural nicotinic cholinergic receptor in rat brain membranes at 10e-5 M of compound concentration; Less active
# Assay type: cell membranes
row,SMILES,Activity
1,CN1C2CCC1CC(O)(c1ccc(Cl)cn1)C2 (stereo unspecified),Weak activity
2,CCOC(=O)N1C2CCC1CC(O)(c1cccc(Cl)n1)C2 (stereo unspecified),Weak activity
3,Clc1ccc(-c2cccnc2)cn1,Weak activity
4,CCOC(=O)N1C2CCC1CC(O)(c1ccc(Cl)cn1)C2 (stereo unspecified),Weak activity

# Tested on: not listed separately
# Assay: Inhibition of binding of [3H]nicotine to neural nicotinic cholinergic receptor in rat brain membranes at 10e-5 M of compound concentration
# Assay type: cell membranes
row,SMILES,IC50 [nM]
1,CN1C2C=C(c3cccc(Cl)n3)CC1CC2.O=C(O)/C=C\C(=O)O (stereo unspecified),264
2,CN1CC=C(c2ccc(Cl)nc2)CC1.Cl,12.5
3,Clc1ccc(C2=CC3CCC(C2)N3)cn1.O=C(O)/C=C\C(=O)O (stereo unspecified),1.7
4,C[n+]1cccc(-c2ccc(Cl)nc2)c1.[I-],77
5,Cl.Clc1cccc(C2=CC3CCC(C2)N3)n1 (stereo unspecified),212
6,CN1CCC=C(c2ccc(Cl)nc2)C1.O=C(O)/C=C\C(=O)O,2.2
7,CN1C2C=C(c3ccc(Cl)nc3)CC1CC2 (stereo unspecified),1.8

# Target: T4, Muscarinic acetylcholine receptor M2 (Rattus norvegicus) (UniProt P10980)
# T4 sequence (whole entry): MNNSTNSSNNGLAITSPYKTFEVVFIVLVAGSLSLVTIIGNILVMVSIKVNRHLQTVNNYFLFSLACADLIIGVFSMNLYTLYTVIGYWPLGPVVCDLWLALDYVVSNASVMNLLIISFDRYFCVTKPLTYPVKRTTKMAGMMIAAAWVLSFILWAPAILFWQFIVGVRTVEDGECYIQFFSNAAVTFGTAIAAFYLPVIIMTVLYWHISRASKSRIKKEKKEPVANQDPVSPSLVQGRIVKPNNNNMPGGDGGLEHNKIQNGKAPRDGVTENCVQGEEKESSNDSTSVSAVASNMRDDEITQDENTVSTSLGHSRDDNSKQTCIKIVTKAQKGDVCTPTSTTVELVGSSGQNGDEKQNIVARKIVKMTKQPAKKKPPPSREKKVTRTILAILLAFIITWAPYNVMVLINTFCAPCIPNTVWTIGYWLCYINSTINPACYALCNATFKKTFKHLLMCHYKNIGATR
# Assay: Inhibition of binding of [3H]quinuclidinyl benzilate to Muscarinic acetylcholine receptor M2 in rat heart atria at 10e-5 M of compound concentration; Less active
row,SMILES,Activity
1,CN1C2CCC1CC(O)(c1cccc(Cl)n1)C2 (stereo unspecified),Weak activity
2,CCOC(=O)N1C2CCC1CC(O)(c1ccc(Cl)nc1)C2 (stereo unspecified),Weak activity
3,CN1CCC(O)(c2ccc(Cl)nc2)CC1,Weak activity
4,CN1C2C=C(c3ccc(Cl)cn3)CC1CC2 (stereo unspecified),Weak activity
5,CCOC(=O)N1C2CCC1CC(O)(c1cccc(Cl)n1)C2 (stereo unspecified),Weak activity
6,Clc1ccc(-c2cccnc2)cn1,Weak activity
7,CCOC(=O)N1C2CCC1CC(O)(c1ccc(Cl)cn1)C2 (stereo unspecified),Weak activity
8,CCOC(=O)OC1(c2ccc(Cl)nc2)CCN(C)CC1,Weak activity
9,CN1C2CCC1CC(O)(c1ccc(Cl)nc1)C2 (stereo unspecified),Weak activity

# Target: T5, Muscarinic acetylcholine receptor M2 (Rattus norvegicus, UniProt P10980)
# T5 sequence (P10980 whole entry): T4 sequence (whole entry)
# Assay: Inhibition of binding of [3H]quinuclidinyl benzilate to Muscarinic acetylcholine receptor M2 in rat heart atria at 10e-5 M of compound concentration
row,SMILES,IC50 [nM]
1,CN1CCC=C(c2ccc(Cl)nc2)C1.O=C(O)/C=C\C(=O)O,3510
2,CN1C2C=C(c3ccc(Cl)nc3)CC1CC2 (stereo unspecified),4180

# Target: T1, Muscarinic acetylcholine receptor M1
# Assay: Inhibition of binding of [3H]quinuclidinyl benzilate to Muscarinic acetylcholine receptor M1 in rat brain cortex at 10e-5 M of compound concentration; Residual radioligand binding higher than 80%
# Assay type: tissue-based
row,SMILES,IC50
1,Clc1ccc(C2=CC3CCC(C2)N3)cn1.O=C(O)/C=C\C(=O)O (stereo unspecified),Not Active
2,Cl.Clc1cccc(C2=CC3CCC(C2)N3)n1 (stereo unspecified),Not Active

# Target: T4, Muscarinic acetylcholine receptor M2 (Rattus norvegicus)
# Assay: Inhibition of binding of [3H]quinuclidinyl benzilate to Muscarinic acetylcholine receptor M2 in rat heart atria at 10e-5 M of compound concentration. Less active
row,SMILES,Activity
1,CN1C2CCC1CC(O)(c1ccc(Cl)cn1)C2 (stereo unspecified),Weak activity

# Target: T5, Muscarinic acetylcholine receptor M2
row,SMILES,IC50
1,CN1C2C=C(c3cccc(Cl)n3)CC1CC2.O=C(O)/C=C\C(=O)O (stereo unspecified),Not Active
2,CN1CC=C(c2ccc(Cl)nc2)CC1.Cl,Not Active
3,Clc1ccc(C2=CC3CCC(C2)N3)cn1.O=C(O)/C=C\C(=O)O (stereo unspecified),Not Active
4,C[n+]1cccc(-c2ccc(Cl)nc2)c1.[I-],Not Active
5,Cl.Clc1cccc(C2=CC3CCC(C2)N3)n1 (stereo unspecified),Not Active
